Data reported in patent US7244557B2, “Method of screening modulators of Nod1 signaling” (Regents of the University of Michigan, priority 2003, dated 2007).

What was measured:
[1] = test system: bone marrow-derived macrophages from nod1-deficient mice; assay: Cytokine secretion assay (ELISA), bone marrow-derived macrophages from nod1-deficient mice; assay type: cell-based, mouse; conditions: 12 hr
Description: (§1) A), B), C) 3×10^5 bone marrow-derived macrophages from wild-type littermates (wt) and nod1-deficient mice were stimulated with 100 ng/ml of iE-DAP, MDP or dsRNA for 12 hr A), B). 0, 100 ng/ml Salmonella typhimurium LPS was used in the presence of 0, 1, 1000 ng/ml iE-DAP or 0, 0.1 1 μM immunostimulatory CpG as indicated for 12 hr C) The concentration of TNF-α (a) and IL-6 (b,c) were determined by ELISA using specific antibodies. Values represent the mean of normalized data±S.D. of triplicate cultures.
Reagents. LPS from S. typhimurium, intact and alkaline-detoxified LPS from E. coli O55:B5 as well as purified lipid A preparations of E. coli F583, MDP, DAP and dsRNA were obtained from Sigma-Aldrich (St. Louis, Mo.). PGN from S. aureus was from Fluka-Chemie (Buchs, Germany). Palmitoyl-Cys ((RS)-2,3-di(palmitoyloxy)-propyl)-Ala-Gly) (sBLP), was obtained from Bachem (Torrance, Calif.). The tetrameric form of the disaccharide dipeptide was described previously (Inohara et al., J. Biol. Chem. 278:5509 [2003]). iE-DAP and iQ-DAP, M3P and M4P were synthesized as described (Kitaura et al., J. Med. Chem. 25:335 [1982]) with small modification. Purification of PGN from B. subtilis 168 and C. flaccumfaciens with hydrolases, Cellosyl or recombinant AtlE (amidase domain) and the fractionation and purification of reduced B. subtilis PGN digested with Cellosyl were performed as previously described (Heilman et al., Mol. Microbiol. 24:1013 [1997]; Atrih et al., J. Bact. 181:3956 [1999]). Removal of proteins and reduction of LPS fraction. E. coli O55:B5 LPS (Sigma) was treated with proteinase K at 37° C. for 12 hr to digest contaminating proteins. To eliminate lipoproteins, LPS was subjected to modified phenol extraction with deoxycholate-containing phenol as described (Hirschfeld et al., J. Immunol. 165:618 [2000]). […] The amino acid composition of E. coli O55:B5 LPS was determined using AccQ·Tag amino acid analysis system (Waters, Milford, Mass.) after hydrolysis at 110° C. for 24 hr. […]

[2] = test system: bone marrow-derived macrophages from wild-type mice; assay: Cytokine secretion assay (ELISA), bone marrow-derived macrophages from wild-type mice; assay type: cell-based, mouse; conditions: 12 hr; for secretion of IL-6 / secretion of TNF-α: 100 ng/ml
Description: as §1
Reagents. LPS from S. typhimurium, intact and alkaline-detoxified LPS from E. coli O55:B5 as well as purified lipid A preparations of E. coli F583, MDP, DAP and dsRNA were obtained from Sigma-Aldrich (St. Louis, Mo.). PGN from S. aureus was from Fluka-Chemie (Buchs, Germany). Palmitoyl-Cys ((RS)-2,3-di(palmitoyloxy)-propyl)-Ala-Gly) (sBLP), was obtained from Bachem (Torrance, Calif.). The tetrameric form of the disaccharide dipeptide was described previously (Inohara et al., J. Biol. Chem. 278:5509 [2003]). iE-DAP and iQ-DAP, M3P and M4P were synthesized as described (Kitaura et al., J. Med. Chem. 25:335 [1982]) with small modification. Purification of PGN from B. subtilis 168 and C. flaccumfaciens with hydrolases, Cellosyl or recombinant AtlE (amidase domain) and the fractionation and purification of reduced B. subtilis PGN digested with Cellosyl were performed as previously described (Heilman et al., Mol. Microbiol. 24:1013 [1997]; Atrih et al., J. Bact. 181:3956 [1999]). Removal of proteins and reduction of LPS fraction. E. coli O55:B5 LPS (Sigma) was treated with proteinase K at 37° C. for 12 hr to digest contaminating proteins. To eliminate lipoproteins, LPS was subjected to modified phenol extraction with deoxycholate-containing phenol as described (Hirschfeld et al., J. Immunol. 165:618 [2000]). For reduction of carboxyl group in the LPS, the LPS was treated with 1-ethyl-3-(3-dimethylaminopropyl) carbodiimide and then reduced with NaBH4 as described (Taylor et al., Biochemistry 11:1383 [1972]). Preparation of E. coli extract. E. coli K-12 mutants were all based on the SØ864 genetic background (lacZ trp upp relA rpsL) (Neuhard and Thomassen, J. Bacteriol. 126:999). SØ874 carries a large chromosomal deletion removing the gene clusters for the biosynthesis of CA capsule and O-antigen. CLM5 is a derivative of SØ874 with a transposon insertion in the wecC gene that blocks the synthesis of ECA (Marolda et al., J. Bacteriol. 177:5539[1995]). FAM5 is a derivative of SØ874 carrying a deletion that eliminates the incorporation of heptose in the LPS core. Extracts were prepared from all of these E. coli K-12 strains and also from another E. coli K-12 strain, LCD27 YA21-6 (Obtained from Dr. Arisaka, Tokyo Institute of Technology). Bacteria were cultured overnight at 37° C. in Luria broth, killed by treatment with acetone followed by vacuum drying and finally resuspended in 10 mM HEPES. The extract was treated with 1M NaOH at 55° C. for 12 hr and neutralized with 1M HEPES (pH 7.4). The soluble fraction after centrifugation and filtration with 0.22 μm filter was applied to SUPEROSE 12 gel filtration column chromatography. Partial purification of NOD1-stimulatory molecules from E. coli and composition analyses. The amino acid composition of E. coli O55:B5 LPS was determined using AccQ·Tag amino acid analysis system (Waters, Milford, Mass.) after hydrolysis at 110° C. for 24 hr. […]

[3] = macrophages lacking NOD1, 100 ng/ml

Row | Substance | secretion of IL-6 [1, 3] | secretion of TNF-α [1, 3] | secretion of IL-6 [2] | secretion of TNF-α [2] | enhancement of the secretion of IL-6 induced by LPS ([1]; nod1 −/− macrophages, 100 ng/ml Salmonella typhimurium LPS) | enhancement of the secretion of IL-6 induced by LPS ([2]; 100 ng/ml Salmonella typhimurium LPS)
1 | MurNAc-L-Ala-γ-D-Gln [MDP] | responded | responded | induced the secretion | induced the secretion | – | –
2 | γ-D-glutamy-meso-diaminopimelic acid [iE-DAP] | – | – | induced the secretion | induced the secretion | this effect was impaired | enhanced the secretion of IL-6 induced by LPS
